According to US4981789A, “One-step enzymatic conversion of cephalosporin C and derivatives to 7-aminocephalosporanic acid and derivatives” (priority 1987, dated 1991):

Test system: cephalosporin C amidase
Assay: Conversion of desacetoxycephalosporin C to 7-ADCA by cephalosporin C amidase
Assay type: biochemical, Arthrobacter viscosus ATCC 53594
Description: As already described above, desacetoxycephalosporin C (DOAC) may be converted to 7-aminodesacetoxycephalosporanic acid (7-ADCA) using the enzyme and method of the present invention. This conversion may be illustrated as follows: [drawing 10] Cephalosporin C amidase, prepared as described above in Example 1, was incubated with 2 mg/ml DAOC for 3 hrs at 37° C. The reaction mixture required a pre-chromatography separation step using XAD-16® (Rohm and Haas) macroreticular water insoluble cross linked adsorbent polymer to remove coeluting contaminants. Chromatography was carried out in accordance with the procedures described above in Example 1 (except that the mobile phase consisted of 1 liter deionized water, 1.88 g hexyl sodium sulfonate, 2.025 ml phosphoric acid, and 25 ml acetonitrile, pH 2.75), and established that approximately 0.5 to 1.0% of the original DOAC substrate had been converted to 7-ADCA.

## CC1=C(C(=O)O)N2C(=O)C(NC(=O)CCCC(N)C(=O)O)C2SC1 (stereo not shown) [DOAC, desacetoxycephalosporin C]
  extent of conversion to 7-ADCA compared with conversion of cephalosporin C to 7-ACA: essentially equivalent to the conversion of cephalosporin C to 7-aminocephalosporanic acid
